Data reported in article PMC12280925, “Structure-based discovery of positive allosteric modulators of the A1 adenosine receptor” (Proceedings of the National Academy of Sciences of the …, 2025).
Residue numbers refer to the chain shown, from its start. pEC50, pKd: −log10 of the molar value. Read-outs that look alike come from different tables or passages of the source.

Tests used:
[1] = tested on: A1R-mediated rat atrial beat rate; assay: Isolated rat atria: NECA-mediated decrease in contractile rate; details: approximate, read-out: potency (EC50) for inhibition in rat atrial beat rate
Protocol: Isolated rat atrial experiments were performed as previously described ([53]). Briefly, 10 to 16 wk old male Sprague Dawley rats were anesthetized with xylazine/ketamine and the chest cavity of the rat was opened to fully expose the heart, which was rapidly removed and placed in Krebs–Henseleit solution. The heart was cut transversely below the right and left atria to remove the ventricles, and the remaining […] were trimmed carefully. Atria was then mounted in an organ bath at 37 °C, bubbled with 5% CO2/95% O2, and allowed to contract spontaneously. The rate of atrial contraction was measured using a force transducer connected to a PowerLab data acquisition system. […] All experiments involving animals were approved by the Monash Institute of Pharmaceutical Sciences Animal Ethics Committee under project number 20213.

[2] = target: T1, A1R (A1R-FlpInCHO cells) (Homo sapiens, UniProt P30542); assay: Whole-cell [3H]DPCPX competition binding: NECA affinity in absence or presence of compound; details: 30 μM compound; for effect on NECA affinity (pKI): [3H]DPCPX competition binding, A1R-FlpINCHO cells; for effect on [3H]DPCPX binding (1 nM): absence of orthosteric agonist
T1 sequence (P30542 1-326): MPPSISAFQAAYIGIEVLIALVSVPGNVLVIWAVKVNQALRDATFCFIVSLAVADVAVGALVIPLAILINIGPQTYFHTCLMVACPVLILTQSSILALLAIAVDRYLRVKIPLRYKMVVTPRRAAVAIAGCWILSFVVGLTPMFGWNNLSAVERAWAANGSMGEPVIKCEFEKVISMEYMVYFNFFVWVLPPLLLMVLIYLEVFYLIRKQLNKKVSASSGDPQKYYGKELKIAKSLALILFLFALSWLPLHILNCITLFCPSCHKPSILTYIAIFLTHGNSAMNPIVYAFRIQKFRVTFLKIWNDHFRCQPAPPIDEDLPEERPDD
Protocol: [^3H]DPCPX (8-cyclopentyl-1,3-dipropylxanthine, [dipropyl-2,3-^3H(N)]) whole-cell binding assays were performed on FlpINCHO cells stably expressing either WT (nontagged or 3xHA-tagged) or mutant 3xHA-A1R. Cells were seeded into a transparent 96-well plate at 40,000 cells/well in DMEM containing 10% FBS. Following 8 h incubation in a humidified environment at 37 °C in 5% CO2, cells were washed and maintained in serum-free DMEM for approximately 18 h at 37 °C in 5% CO2. […] Assays were terminated by washing twice with 100 μL/well cold phosphate-buffered saline, followed by the addition of 100 μL OptiPhase Supermix™ scintillation cocktail and bound radioactivity measured using a MicroBeta^2 ™ plate counter (PerkinElmer).
[^3H]DPCPX competition binding curves were fitted to a one-site inhibitory mass action equation:[1] Y=Bottom+Top-Bottom/1+10^X-LogIC50,
The top and bottom represent the maximal and minimal binding in the presence of the competitive ligand, respectively. Equilibrium dissociation constant (KI) values were subsequently derived from inhibition binding experiments using the Cheng–Prusoff equation:[2] KI=IC50/1+A/KD.

[3] = target: T1, A1R (A1R-FlpInCHO cells); assay: Inhibition of forskolin-stimulated cAMP accumulation: NECA potency ± compound and compound alone; assay type: cell-based; details: for effect on NECA potency (pEC50): 30 μM compound, inhibition of forskolin-stimulated cAMP accumulation; for allosteric agonism (functional response in the absence of NECA): 30 μM compound alone, 3 μM forskolin-stimulated cAMP accumulation
Protocol: (§1) FlpInCHO cell lines and cortical neuron cells were seeded into transparent 96-well plates at 20,000 cells/well and incubated for 16 to 20 h in a humidified incubator at 37 °C in 5% CO2. […] Compounds were added at either a single concentration (10 or 30 μM) or a concentration range for full interaction studies (3 to 30 μM), and plates were incubated for 30 to 60 min at 37 °C in a humidified chamber. […] After 30 min incubation at 37 °C, the reaction was terminated by rapid removal of buffer and the addition of 50 μL/well cold ethanol. […] Agonist concentration–response curves were normalized to the response mediated by 3 µM forskolin […].
Response=Basal+Emax-Basal×A/EC50+A,

[4] = target: T2, A1R allosteric site (A1R-FlpINCHO cells, wild type) (Homo sapiens, UniProt P30542); assay: Whole-cell [3H]DPCPX interaction binding with NECA, allosteric ternary complex model; details: for binding cooperativity with NECA (logα): orthosteric agonist NECA
T2 sequence (P30542 1-326): T1 sequence (P30542 1-326)
Description: Equilibrium binding interaction experiments were fitted to the following allosteric ternary complex model.[3] Y=BmaxA/A+KAKB/αAB+KB1+[I]/KI+[B]/KB+αII[B]/KIKB,
A cooperativity factor α > 1 describes positive cooperativity; a value 0 < α < 1 describes negative cooperativity, and a value of α = 1 describes neutral cooperativity.

[5] = target: T1, A1R (A1R-FlpInCHO cells); assay: NECA/allosteric ligand interaction in cAMP accumulation, operational model of allosterism; assay type: cell-based; details: for allosteric ligand efficacy (logτB): allosteric agonism in cAMP; for functional cooperativity with NECA (logαβ): cAMP
Protocol: as §1
[5] E=EmτAAKB+αβ[B]+τB[B]KA^n/AKB+KAKB+[B]KA+α[A][B]^n+τAAKB+αβ[B]+τB[B]KA^n
Orthosteric agonist and allosteric ligand affinity were constrained to values determined from radioligand binding.

[6] = target: T3, A1R S246^6.47A mutant (Homo sapiens, UniProt P30542, S246A); assay: [3H]DPCPX interaction binding at mutant S246A-A1R-FlpINCHO
T3 construct: expressed in transfected cells; host or cells: FlpInCHO cells, stably transfected
T3 sequence (P30542 1-326 S246A): T1 sequence (P30542 1-326) with S246A

[7] = target: T4, A1R G279^7.44A mutant (Homo sapiens, UniProt P30542, G279A); assay: [3H]DPCPX interaction binding at mutant G279A-A1R-FlpINCHO
T4 construct: expressed in transfected cells; host or cells: FlpInCHO cells, stably transfected
T4 sequence (P30542 1-326 G279A): T1 sequence (P30542 1-326) with G279A

[8] = target: T5, A2AR (Homo sapiens, UniProt P29274); assay: cAMP accumulation in A2AR FlpINCHO cells (selectivity); assay type: cell-based
T5 construct: expressed in transfected cells; host or cells: FlpInCHO cells, stably transfected
T5 sequence (P29274 whole entry): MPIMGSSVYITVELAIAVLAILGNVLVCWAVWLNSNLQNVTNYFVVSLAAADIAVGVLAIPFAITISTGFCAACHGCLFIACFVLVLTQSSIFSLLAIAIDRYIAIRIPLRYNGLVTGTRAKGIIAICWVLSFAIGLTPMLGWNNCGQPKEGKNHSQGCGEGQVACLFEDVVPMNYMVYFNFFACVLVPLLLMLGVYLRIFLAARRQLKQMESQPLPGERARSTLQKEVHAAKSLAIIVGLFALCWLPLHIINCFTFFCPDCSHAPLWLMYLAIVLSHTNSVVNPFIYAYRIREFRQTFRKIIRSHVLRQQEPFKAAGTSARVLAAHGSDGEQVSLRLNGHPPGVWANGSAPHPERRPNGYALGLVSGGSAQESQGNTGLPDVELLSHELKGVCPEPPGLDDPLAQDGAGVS

[9] = target: T6, A2BR (Homo sapiens, UniProt P29275); assay: cAMP accumulation in A2BR FlpINCHO cells (selectivity); assay type: cell-based
T6 construct: expressed in transfected cells; host or cells: FlpInCHO cells, stably transfected
T6 sequence (P29275 1-332): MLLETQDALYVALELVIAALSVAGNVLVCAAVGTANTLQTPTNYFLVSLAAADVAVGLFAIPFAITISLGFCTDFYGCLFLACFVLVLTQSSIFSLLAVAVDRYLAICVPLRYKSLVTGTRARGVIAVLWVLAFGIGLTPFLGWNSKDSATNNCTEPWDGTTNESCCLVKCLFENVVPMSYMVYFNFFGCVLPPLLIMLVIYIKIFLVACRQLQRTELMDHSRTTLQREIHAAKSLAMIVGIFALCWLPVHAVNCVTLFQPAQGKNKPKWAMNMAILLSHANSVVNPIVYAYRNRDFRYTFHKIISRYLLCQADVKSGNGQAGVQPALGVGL

[10] = target: T7, A3R (Homo sapiens, UniProt P0DMS8); assay: cAMP accumulation in A3R FlpINCHO cells (selectivity); assay type: cell-based
T7 construct: expressed in transfected cells; host or cells: FlpInCHO cells, stably transfected
T7 sequence (P0DMS8 1-318): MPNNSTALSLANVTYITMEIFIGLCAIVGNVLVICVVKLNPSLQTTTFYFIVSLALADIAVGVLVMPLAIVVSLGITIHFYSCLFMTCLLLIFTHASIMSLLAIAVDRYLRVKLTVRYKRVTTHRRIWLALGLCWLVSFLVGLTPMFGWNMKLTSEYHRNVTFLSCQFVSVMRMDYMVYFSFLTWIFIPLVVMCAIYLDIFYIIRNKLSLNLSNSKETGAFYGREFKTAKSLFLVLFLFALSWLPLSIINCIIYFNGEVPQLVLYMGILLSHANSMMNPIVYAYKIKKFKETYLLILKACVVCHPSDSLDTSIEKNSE

[11] = target: T8, M2 receptor (M2R) (Homo sapiens, UniProt P08172); assay: cAMP accumulation in M2 receptor FlpINCHO cells (selectivity); assay type: cell-based; details: acetylcholine as agonist
T8 sequence (P08172 1-466): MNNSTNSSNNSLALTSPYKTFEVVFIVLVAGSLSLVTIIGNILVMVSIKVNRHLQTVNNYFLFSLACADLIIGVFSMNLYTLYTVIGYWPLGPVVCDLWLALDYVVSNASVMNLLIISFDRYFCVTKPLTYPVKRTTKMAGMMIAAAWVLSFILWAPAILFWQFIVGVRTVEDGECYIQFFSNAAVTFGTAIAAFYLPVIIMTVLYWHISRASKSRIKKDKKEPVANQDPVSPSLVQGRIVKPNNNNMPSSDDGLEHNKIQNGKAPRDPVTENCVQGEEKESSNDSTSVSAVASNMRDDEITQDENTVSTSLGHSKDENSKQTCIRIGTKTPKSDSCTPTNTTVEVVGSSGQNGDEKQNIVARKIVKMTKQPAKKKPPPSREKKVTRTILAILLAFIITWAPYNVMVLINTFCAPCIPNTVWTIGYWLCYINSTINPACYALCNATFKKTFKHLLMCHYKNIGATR

[12] = tested on: nontransfected FlpINCHO cells; assay: cAMP accumulation in nontransfected FlpINCHO cells; assay type: cell-based, Chinese hamster; details: 10 µM compound
[13] = allosteric ternary complex model

For CCNC(=O)[C@H]1O[C@@H](n2cnc3c(N)ncnc32)[C@H](O)[C@@H]1O [NECA, 5′-N-ethylcarboxamidoadenosine], the pEC50 [1] was ~6.89.

CCCc1sc(N)nc1-c1ccc(C)cc1C [compound 2] was tested, and the “effect on NECA affinity (pKI)” value [2] was “significantly enhanced” and the “effect on NECA potency (pEC50)” value ([3]; A1R-FlpINCHO cells) was “significantly enhanced”.

With Nc1nc(-c2cccc3ccccc23)cs1 [compound 12] the “effect on NECA affinity (pKI)” value [2] was “significantly enhanced”, the “effect on [3H]DPCPX binding (1 nM)” value [2] was “modest but significant decrease” and the “allosteric agonism (functional response in the absence of NECA)” value [3] was “no significant effect”. For the same molecule, the “effect on NECA potency (pEC50)” value ([3]; A1R-FlpINCHO cells) was “significantly enhanced”, the Kb ([4]; allosteric ternary complex model, n = 4, read-out: allosteric ligand affinity (pKB) (converted)) was 23.4 µM and the “binding cooperativity with NECA (logα)” value [4, 13] was 0.99 ± 0.25. For the same molecule, the “positive cooperativity between PAM and NECA” value ([4]; approximate, from logα) was ~10 fold, the pKd ([4]; approximate, from pKB, read-out: affinity for the A1R allosteric site) was ~4.60 and the “allosteric ligand efficacy (logτB)” value [5] was −0.65 ± 0.12. For the same molecule, the “functional cooperativity with NECA (logαβ)” value [5] was 0.68 ± 0.10.

For Cc1ccc(C(=O)c2c(N)sc(C)c2C)cc1 [compound 20], the “effect on NECA affinity (pKI)” value [2] was “significantly enhanced”, the “effect on [3H]DPCPX binding (1 nM)” value [2] was “modest but significant decrease” and the “allosteric agonism (functional response in the absence of NECA)” value [3] was “no significant effect”. For the same molecule, the “effect on NECA potency (pEC50)” value ([3]; A1R-FlpINCHO cells) was “significantly enhanced”.

With Nc1ccc(Cl)cc1C(=O)c1ccc(F)cc1 [compound 22] the “effect on NECA affinity (pKI)” value [2] was “significantly enhanced”.

For CCCc1sc(N)nc1-c1ccc(C)c2ccccc12 [compound 54], the “agonism (compound alone)” value ([3]; A1R-FlpINCHO cells) was “modest functional response”, the “binding cooperativity (logα) with NECA” value ([4]; WT A1R, Table S2) was 0.92 and the Kb ([4]; allosteric ligand affinity (pKB), allosteric ternary complex model, n = 4) was 7.08 µM. The “binding cooperativity with NECA (logα)” value [4, 13] was 1.15 ± 0.10, the Kb ([4]; pKB, WT A1R, mean ± SEM (n), Table S2) was 5.62 µM and the “allosteric ligand efficacy (logτB)” value [5] was −0.37 ± 0.10. For the same molecule, the “functional cooperativity with NECA (logαβ)” value [5] was 0.84 ± 015, the “effect of S246^6.47A on affinity or cooperativity” value [6] was “did not significantly decrease” and the Kb ([6]; […], Table S2) was 5.13 µM. For the same molecule, the “binding cooperativity (logα) with NECA” value ([6]; […], Table S2) was 1.10, the “effect of G279^7.44A on affinity” value [7] was “did not influence” and the “effect of G279^7.44A on allosteric cooperativity with the orthosteric agonist” value [7] was “significantly decreased”. The Kb ([7]; […], Table S2) was 2140 nM, the “binding cooperativity (logα) with NECA” value ([7]; […], Table S2) was -0.05 and the “effect on NECA potency” value ([8]; 10 µM compound, A2AR) was “no significant effect”. For the same molecule, the “agonism (compound alone)” value ([8]; 30 μM, A2AR FlpINCHO cells) was “no appreciable activity”, the “effect on NECA potency” value ([9]; 10 µM compound, A2BR) was “no significant effect” and the “agonism (compound alone)” value ([9]; 30 μM, A2BR FlpINCHO cells) was “no appreciable activity”. The “effect on NECA potency” value ([10]; 10 µM compound, A3R) was “no significant effect”, the “agonism (compound alone)” value ([10]; 30 μM, A3R FlpINCHO cells) was “no appreciable activity” and the “effect in FlpINCHO cells expressing the M2 receptor” value [11] was “no significant effect”. For the same molecule, the “effect in nontransfected FlpINCHO cells” value [12] was “no significant effect”.
